Data on 8 compounds can be found in US20150218142A1, “Derivatives of Betulin” (GlaxoSmithKline LLC, priority 2011, published 2015).

The structures appear in SMILES notation. Read-outs that look alike come from different tables or passages of the source.

In one data set the test system is HIV NL4-3 wt. Kind of data set: microbe, parasite or virus in culture. The data set is classed as cell-based.
Data set [1] has as its system NL4-3 strain with V370A site directed mutant polymorphism. Kind of data set: microbe, parasite or virus in culture. It is filed as cell-based, HIV-1.
The test system of data set [2] is HIV.
The test system of data set [3] is HIV. To be noted: McCallister et al. 2008 poster; cited from earlier work.
Data set [4] has as its system HIV. Kind of data set: microbe, parasite or virus in culture. To be noted: Human immunodeficiency virus 1, read-out: LHIV IC50 value with 40% human serum.
Where [5] appears, read: Human immunodeficiency virus 1, NL43, HIV MT4 Antiviral Cell Assay of Example 84, read-out: EC50 NL4-3 wt.
The mark [6] stands for this setting: Human immunodeficiency virus 1, NL43, Consensus Clade B Sp1 Genotype, read-out: MT4 NL. wt* EC50.

For the compound `CC(C)C1=C2[C@H]3CC[C@@H]4[C@@]5(C)CC[C@H](OC(=O)CC(C)(C)C(=O)O)C(C)(C)[C@@H]5CC[C@@]4(C)[C@]3(C)CC[C@@]2(C(=O)C(=O)N(CCN(C)C)Cc2ccc(Cl)cc2)CC1=O` [Compound C], the EC50 is 6 nM in the data set with HIV NL4-3 wt (Human immunodeficiency virus 1, NL43, Table 7, read-out: HIV w/t MT4 EC50); 6 nM with HIV NL4-3 wt (Human immunodeficiency virus 1, NL43, read-out: MT4 antiviral assay NL4-3 strain / HIV wild type EC50); 19 nM in data set [1] (Human immunodeficiency virus 1, NL43, read-out: MT4 antiviral assay V370A polymorphism EC50); 19 nM in data set [1] (Human immunodeficiency virus 1, NL43, read-out: V370A MT4 EC50); 929 nM in data set [1] (Human immunodeficiency virus 1, NL43, read-out: protein adjusted EC50 for the V370A polymorphic virus).
With `CC(C)C1=C2[C@H]3CC[C@@H]4[C@@]5(C)CC[C@H](OC(=O)CC(C)(C)C(=O)O)C(C)(C)[C@@H]5CC[C@@]4(C)[C@]3(C)CC[C@@]2([C@@H](O)CNCc2cccc(Cl)c2)CC1=O` [compound 38], the EC50 in the data set with HIV NL4-3 wt (setting [5]) is 5.2 nM.
With `CC(C)C1=C2[C@H]3CC[C@@H]4[C@@]5(C)CC[C@H](OC(=O)CC(C)(C)C(=O)O)C(C)(C)[C@@H]5CC[C@@]4(C)[C@]3(C)CC[C@@]2([C@@H](O)CNC2CCCCC2)CC1=O` [compound 59], in the data set with HIV NL4-3 wt (setting [5]), the EC50 came to 5.3 nM.
Take `CC(C)C1=C2[C@H]3CC[C@@H]4[C@@]5(C)CC[C@H](OC(=O)CC(C)(C)C(=O)O)C(C)(C)[C@@H]5CC[C@@]4(C)[C@]3(C)CC[C@@]2([C@H](O)CNCc2cccc(Cl)c2)CC1=O` [compound 37]: in the data set with HIV NL4-3 wt (setting [5]), the EC50 turned out to be 26.9 nM.
With `C=C(C)[C@@H]1CC[C@]2(C(=O)O)CC[C@]3(C)[C@H](CC[C@@H]4[C@@]5(C)CC[C@H](OC(=O)CC(C)(C)C(=O)O)C(C)(C)[C@@H]5CC[C@]43C)[C@@H]12` [Bevirimat], the “fold shift in the IC50 value, LHIV assay, 40% human serum” value with HIV [2] (addition of 40% human serum) was 174.9 fold. Further, the “fold shift with human serum” value with HIV [2] (human protein shift, human serum (HS)) is recorded as 157 fold. For the same compound, the Cmin target in the data set on HIV [3] was over 20000 ng/mL. For the same compound, in the data set on HIV [4], the 50% inhibitory concentration (IC50) came to 3880 nM.
With `CC(C)C1=C2[C@H]3CC[C@@H]4[C@@]5(C)CC[C@H](OC(=O)CC(C)(C)C(=O)O)C(C)(C)[C@@H]5CC[C@@]4(C)[C@]3(C)CC[C@@]2(C(=O)C(=O)NC2(c3ncc(Cl)cn3)CC2)CC1=O` [CompoundB], the EC50 in the data set with HIV NL4-3 wt (setting [6]) came to 8 nM.
On to `CC(C)C1=C2[C@H]3CC[C@@H]4[C@@]5(C)CC[C@H](OC(=O)CC(C)(C)C(=O)O)C(C)(C)[C@@H]5CC[C@@]4(C)[C@]3(C)CC[C@@]2(C(=O)C(=O)NC2(c3ccc(Cl)cc3)CC2)CC1=O` [Compound A], for which the EC50 in the data set with HIV NL4-3 wt (setting [6]) is 14 nM; in data set [1] (Human immunodeficiency virus 1, NL43, read-out: MT4 NL. V370A EC50 (nM)) it was 16 nM.
For `CC(=O)O[C@H](CNCc1ccccc1)[C@@]12CC[C@]3(C)[C@H](CC[C@@H]4[C@@]5(C)CC[C@H](OC(=O)CC(C)(C)C(=O)O)C(C)(C)[C@@H]5CC[C@]43C)C1=C(C(C)C)C(=O)C2` [compound 53], the EC50 with HIV NL4-3 wt (setting [5]) came to 6.2 nM.
